Results as given in patent US5882881A, “Inhibition of cyst formation by cytoskeletal specific drugs” (priority 1998, dated 1999).
“Also recorded” adds a separate entry of the source. Where two headings read alike, the source gives them in different places.

Legend:
Murine CPK Cells [1] = test: In vitro cyst formation and cyst size in suspension culture of murine CPK cells; assay type: cell-based, mouse; conditions: day 21, 24 h, final concentration per Table II (cytosine arabinoside 20 μg/ml, α-amanitin 100 ng/ml, cycloheximide 49 μg/ml, ouabain 1 mM, amiloride 1 mM, brefeldin-A 10 μg/ml, griseofulvin 350 μM, colchicine 10 μM, vinblastine 1 μM, nocodazole 30 μM, taxol 25 μM, cytochalasins 10 μM)
Murine CPK Cells [2] = test: 3H-thymidine incorporation (DNA synthesis) in CPK cell suspension culture; assay type: cell-based, mouse; conditions: for ^3 H-dThd Incorporation: ± SD, three wells, concentrations as in Table II, control 100 ± 11, 1440 min; for ^3 H-dThd incorporation / DNA synthesis (in words): CPK cultures
Experimental: Growth studies were performed on kidney cells derived from day 10, 21 and 28 postnatal CPK mice and their normal littermates. Immediately after cells were placed in suspension or monolayer culture, 3 μCi of ^3 H-thymidine (^3 H-dThd, specific activity 45 Ci/mmol, Amersham, Ill.) was placed in each well of the culture plate. DNA synthesis was assessed by incorporation of ^3 H-dThd over the 24 hours of culture, and trichloroacetic acid-insoluble. radioactivity was expressed as cpm/μg protein. Protein was assayed with the BCA reagent as described by the manufacturer (Pierce, Rockford, Ill.). At 24 hours of culture, an aliquot (0.2 ml) of the suspension was removed and the number of cysts counted using an inverted microscope. The number of cysts was expressed as a ratio factored for the total number of cells in the suspension at 24 hours of culture. Cyst diameter was measured at 100× using an eyepiece micrometer.
(§1) The effects of various metabolic inhibitors on cyst formation were studied in cultures derived from day 21 postnatal CPK mice. […] Taxol (25 μM), a microtubule specific inhibitor, was from Calbiochem (La Jolla, Calif.). All other chemicals were obtained from Sigma Chemical Co. Cytosine arabinoside was added at the final concentration of 20 μg/ml to inhibit DNA synthesis; α-amanitin at 100 ng/ml to inhibit RNA synthesis; cycloheximide at 40 μg/ml to inhibit protein synthesis; amiloride at 1 mM to inhibit the renal epithelial Na^+ -H^+ exchange; ouabain at 0.5 mM to inhibit Na^+ -K^+ -ATPase; brefeldin-A at 10 μg/ml to inhibit transport of surface proteins; griseofulvin at 350 μM to inhibit microtubule function; colchicine at 10 μM to inhibit microtubule polymerization; and cytochalasin-B and cytochalasin-D at 10 μM to depolymerize actin filaments.
(§2) In the presence of these metabolic inhibitors in vitro, cyst formation was noted to be either present or absent; if present, the diameters of 20 cysts from a 0.2 ml aliquot were measured. In the same samples, ^3 H-dThd incorporation was also measured as described above. […] After each wash, cell clusters were collected by centrifuging at 200×g for 1 minute and the supernatant discarded. Washed cell clusters were resuspended in the original volume of growth medium without inhibitors, placed in agarose coated wells and incubated at 37° C. in a moisture saturated incubator in 5% CO2 and air.
(§3) In this table, the mean cyst size is reported as ±SD with a measurement of twenty cysts. The ^3 H-dThd incorporation is reported as ±SD using measurements of three wells. The * indicates […] versus control. […] The entries listed as "NA" in the table indicate data that is not available.

Murine CPK Cells [3] = test: In vitro cyst formation and cyst size in suspension culture of murine CPK cells; assay type: cell-based, mouse; conditions: for Cyst Size: mean ± SD of twenty cysts, concentrations as in Table II, control 71 ± 22; for cyst formation (in words): 24 h suspension culture, ouabain 0.5 mM, also 1 mM, b155 taxol 25 μM, colchicine 10 μM, vinblastine 1 μM, cytochalasins 10 μM, model species not given
Experimental: At 10, 21 and 28 days after birth, mice having congenital polycystic kidney disease (CPK) and their phenotypically normal littermates were sacrificed by cervical dislocation. Kidneys were harvested aseptically and washed with DMEM/F12 (Sigma Chemical Co., St. Louis, Mo.) in a 1:1 mix. Each decapsulated kidney was chopped into cubes (1 mm) and incubated in 5 ml of collagenase solution composed of 1 mg/ml collagenase type IV (Worthington Biochemical Corporation, Freehold, N.J.), 1 mg/ml egg white trypsin inhibitor (Worthington) in 1:1 DMEM/F12.
The top 12 mls, which contained both single cells and aggregates of up to 10 cells, as assessed by inverted phase-ontrast microscopy, were placed in 2 ml aliquots in the wells of plastic culture plates (Corning, N.Y.) precoated with 1% agarose in DMEM:F12 (2 ml in each well of a 6-well plate; 1 ml in each well of a 24-well plate). Cell samples were digested with further incubation for 10 minutes in 0.05% trypsin and 0.53 mM EDTA (Gibco, BRL Gaithesburg, Md.) at 37° C. All cultures were plated at a final density of 1-3×10^4 cell, per well. For growth studies of monolayer cells, identical preparations were grown on the plastic surface of the culture plates. Both the monolayers and the cell suspensions were incubated at 37° C. in a moisture saturated incubator in 5% CO2 and air.
(§4) I used the in vitro cyst formation system of the present invention to analyze compounds that affect the process of cyst formation. To determine the therapeutic effectiveness of an agent, cyst-forming cells are suspended in a medium to which the agent has been added. These cells are then cultured on a solid phase without formation of a layer of cells on the surface, such as in the assay system described in Example 1. The extent to which the cells actually form cysts can be detected and compared to the extent of cyst formation expected if no agent were added. If the amount of cyst formation is lower than expected, then the agent is a good candidate for therapeutic intervention of cystic diseases.
as §1, §2, §3

human ADPKD cells = test: In vitro cyst formation in human ADPKD cells; assay type: cell-based
From the text: I have substituted human ADPKD cells for the murine CPK cells of Example 1 and produced similar results. Other cyst-forming cells are believed to also form suitable results with only minor deviations from the conditions set forth in Example 1.
Cell suspensions were separated from debris by sedimentation at unit gravity and decantation. After washing once with DMEM/F12 medium, cells were suspended in DMEM/F12 supplemented with 1.2 gm/l sodium bicarbonate, 1× insulin, transferrin and selenium (Sigma # 11184), 1% lipids supplement (Sigma # L4646) and 1× antibiotic/antimycotic (Sigma # A7292) at a density of 5×10^4 cells per ml. Two mls of the cell suspension were aliquoted into each well of a six-well plastic cell culture plates that had been precoated with 2 mls of 1% low melting point agarose in DMEM/F12 and incubated at 37° C. in a humidified atmosphere of 5% CO2 in air.
as §4

[4] = human ADPKD cells, cytosine arabinoside 20 μg/ml, α-amanitin 100 ng/ml, cycloheximide 40 μg/ml, amiloride 1 mM, ouabain 0.5 mM, taxol 25 μM, colchicine 10 μM, vinblastine 1 μM, cytochalasins 10 μM

Compound	Cyst Formation (+/-) (Murine CPK Cells [1])	^3 H-dThd Incorporation (Murine CPK Cells [2]) [% control]	Cyst Size (Murine CPK Cells [3]) [μm]	cyst formation (in words) (human ADPKD cells; [4])	cyst formation (in words) (human ADPKD cells; human ADPKD cells, cytosine arabinoside 20 μg/ml, α-amanitin 100 ng/ml, cycloheximide 40 μg/ml, amiloride 1 mM, ouabain 0.5 mM, taxol 25 μM, colchicine 10 μM, vinblastine 1 μM, cytochalasins 10 μM, listed as amiloride)	time to lumen appearance after removing the inhibitor (human ADPKD cells; human model)	reversibility of inhibition of cyst formation (human ADPKD cells; human model, inhibitor removed)	cyst formation (in words) (Murine CPK Cells [3]; murine CPK cells)	Cyst Formation (+/-) (Murine CPK Cells [3])	cyst formation (in words) (human ADPKD cells)	^3 H-dThd incorporation / DNA synthesis (in words) (Murine CPK Cells [2])	^3 H-dThd Incorporation (Murine CPK Cells [2]; listed as cytosine arabinoside) [% control]	Cyst Formation (+/-) (Murine CPK Cells [3]; murine CPK cells, day 21, 24 h, final concentration per Table II (cytosine arabinoside 20 μg/ml, α-amanitin 100 ng/ml, cycloheximide 49 μg/ml, ouabain 1 mM, amiloride 1 mM, brefeldin-A 10 μg/ml, griseofulvin 350 μM, colchicine 10 μM, vinblastine 1 μM, nocodazole 30 μM, taxol 25 μM, cytochalasins 10 μM))
N=C(N)NC(=O)c1nc(Cl)c(N)nc1N [Amiloride]	-	72 ± 25	0	completely block cyst formation	cyst formation can be blocked	twenty-four	reversible						
C[C@H]1CCC/C=C/[C@@H]2C[C@H](O)C[C@H]2[C@H](O)/C=C/C(=O)O1 [Brefeldin-A]	-		0					completely inhibited cyst formation					
COc1cc2c(c(OC)c1OC)-c1ccc(OC)c(=O)cc1[C@@H](NC(C)=O)CC2 [Colchicine]		97 ± 12											
C[C@@H]1C[C@@H]([C@H](O)CC2CC(=O)NC(=O)C2)C(=O)[C@@H](C)C1 [Cycloheximide]		88 ± 20	68 ± 17						+	Neither cytosine arabinoside (20 μg/ml), α-amanitin (100 ng/ml) nor cycloheximide (40 μg/ml) inhibited cyst formation			
C=C1C(C)C2C(Cc3ccccc3)NC(=O)C23OC(=O)/C=C/C(O)CCCC(C)C/C=C/C3C1O (centres unmarked) [Cytochalasin-B]	-	96 ± 5	0	effectively inhibited cyst formation in both models				effectively inhibited cyst formation in both models					
C=C1C(C)C2C(Cc3ccccc3)NC(=O)C23C(OC(C)=O)/C=C/C(C)(O)C(=O)C(C)C/C=C/C3C1O (centres unmarked) [Cytochalasin-D]	-	97 ± 2	0	effectively inhibited cyst formation in both models				effectively inhibited cyst formation in both models					
Nc1ccn([C@@H]2O[C@H](CO)[C@@H](O)[C@@H]2O)c(=O)n1 [Cytosine arabinoside, cytosine arabinoside]	+	2 ± 2	70 ± 21	Neither cytosine arabinoside (20 μg/ml), α-amanitin (100 ng/ml) nor cycloheximide (40 μg/ml) inhibited cyst formation; also recorded: no effect on in vitro cyst formation is observed				cyst formation was not affected; also recorded: cyst formation was not impaired after 24 hours of culture			profound decrease in ^3 H-dThd incorporation; also recorded: effectively abolished ^3 H-dThd incorporation	2±2	
COC(=O)Nc1nc2ccc(C(=O)c3cccs3)cc2[nH]1 [Nocodazole]	-	87 ± 16	0	reversibly inhibited				reversibly inhibited					
CC[C@]1(O)C[C@@H]2CN(CCc3c([nH]c4ccccc34)[C@@](C(=O)OC)(c3cc4c(cc3OC)N(C)[C@H]3[C@@](O)(C(=O)OC)[C@H](OC(C)=O)[C@]5(CC)C=CCN6CC[C@]43[C@@H]65)C2)C1 [Vinblastine]	-	93 ± 9	0	reversibly inhibited in vitro cyst formation in both models				reversibly inhibited in vitro cyst formation in both models					
α-amanitin		71 ± 10	65 ± 27	Neither cytosine arabinoside (20 μg/ml), α-amanitin (100 ng/ml) nor cycloheximide (40 μg/ml) inhibited cyst formation							small, but significant, decrease in ^3 H-dThd incorporation		+
